US20240373851A1, “PEST CONTROL COMPOSITION AND PEST CONTROL METHOD” (SUMITOMO CHEMICAL COMPANY, LIMITED, priority 2021, published 2024)

What was measured:
Format in all cases: in vivo
[1] = test system: German cockroaches (Blattella germanica); assay: Test Example 9: control test against German cockroaches, spray in chamber; details: adult German cockroaches; 1.5 mL sprayed; concentration [%]: broflanilide 0.02, imiprothrin 0.01, permethrin 0.05, alone or mixed; 420 minutes after spraying
Source text: (§1) Next, the usefulness of the inventive composition for controlling pests will be indicated by Test Examples.
(§2) (hereinafter referred to as expected value A)
(§3) (hereinafter referred to as expected value B)
(§4) In a plastic cup (diameter: 12.4 cm, height: 10.2 cm) lined with a filter paper, ten adult German cockroaches (Blattella germanica) (five males and five females each) were released, and the plastic cup was placed in the center of the bottom of a box-shaped chamber (46 cm×46 cm×70 cm in height). From the height of 60 cm, 1.5 mL of each of formulations prepared by dissolving a single agent of any one of broflanilide, imiprothrin and permethrin, or a mixed agent of two or more thereof in a mixture of isopropyl alcohol and Isopar M at a mixing ratio of 1:9 was sprayed under a spray pressure of 0.041 MPa. After a lapse of 420 minutes from spraying, the number of dead and moribund individuals was examined, and moribund and mortal rates (%) were determined by the above equation 3. The test was performed through two replicates. Dead individuals are completely immobile individuals, and moribund individuals are individuals who cannot get up when turned on their backs.

[2] = test system: German cockroaches (Blattella germanica); assay: Test Example 7: control test against German cockroaches, spray in chamber; details: adult German cockroaches; 1.5 mL sprayed; concentration [%]: isocycloseram 0.05, imiprothrin 0.01, cypermethrin 0.01, alone or mixed; 120 minutes after spraying
Protocol: (§5) Next, the usefulness of the inventive composition for controlling pests will be indicated by Test Examples. In general, the control effect to be expected when treated with a mixture obtained by mixing given two or three types of active ingredient compounds is determined by the Colby's calculation equation represented by the following [Equation 1] and [Equation 2].
(§6) [formula] • P: moribund and mortal rates (%) when treated with an active ingredient compound X in the concentration of m [ppm] • Q: moribund and mortal rates (%) when treated with an active ingredient compound Y in the concentration of n [ppm] • EA: moribund and mortal rates (%) when treated with an active ingredient compound X in the concentration of m [ppm] and an active ingredient compound Y in the concentration of n [ppm] (hereinafter referred to as expected value A) […]
(§7) Regarding the synergistic effect of three types of the active ingredient compounds, in case where the moribund and mortal rates (%) when actually treated with a mixture obtained by mixing three types of the active ingredient compounds exceed the expected value A calculated by using the moribund and mortal rates (%) when actually treated with a mixture obtained by mixing two types of the active ingredient compounds among three types thereof, and the moribund and mortal rates (%) calculated when actually treated the remaining one type of the active ingredient compound, or the expected value B (%) calculated from the moribund and mortal rates (%) when actually treated with each of three types of the active ingredient compounds alone, it was determined that the synergistic effect exists. […]

[3] = test system: German cockroaches (Blattella germanica); assay: Test Example 10: control test against German cockroaches, spray in chamber; details: adult German cockroaches; 1.5 mL sprayed; concentration [%]: nicofluprole 0.01, imiprothrin 0.01, permethrin 0.05, alone or mixed; 60 minutes after spraying
Protocol: as §5, §6, §7

[4] = test system: German cockroaches (Blattella germanica); assay: Test Example 5: control test against German cockroaches, spray in chamber; details: adult German cockroaches; 1.5 mL sprayed; concentration [%]: nicofluprole 0.01, imiprothrin 0.01, cyfluthrin 0.0002, alone or mixed; 45 minutes after spraying
Source text: as §1, §2, §3
as §4, with “each) […]” for “each)”, “nicofluprole,” for “broflanilide,”, “cyfluthrin,” for “permethrin,”, “45” for “420”

C#CCN1CC(=O)N(COC(=O)[C@@H]2C(C=C(C)C)C2(C)C)C1=O (mixture of isomers) [Imiprothrin, imiprothrin]
Moribund and mortal rates [%] after 420 minutes [1]: 15% | Moribund and mortal rates [%] after 120 minutes [2]: 5% | Moribund and mortal rates [%] after 60 minutes [3]: 40% | Moribund and mortal rates [%] after 45 minutes [4]: 65%
